Experimental data reported in patent publication US10364256B2 (GlaxoSmithKline Intellectual Property Development Limited, priority 2015, dated 2019).
Where two headings read alike, the source gives them in different places.

Key:
[1] = test system: NQO1 specific enzyme activity in BEAS-2B cells (marker for NRF2 activation); assay: BEAS-2B NQO1 MTT Assay; assay type: cell-based; settings: compound incubated 48 hours, read-out: EC50 (NQO1 specific enzyme activity induction)
How it was run: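 BEAS-2B cells treated with compound for 48 h at 37 °C, then lysed; NQO1 activity in lysates measured kinetically by MTT reduction at A570 over 30 min. pEC50 from 3-parameter fit of ΔOD/min versus log concentration; lysate also taken for Cell Titer Glo.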

[2] = biological target: T1, Keap1 Kelch domain (321-609) / TAMRA-labeled 16mer NRF2 peptide (ETGE motif) (Homo sapiens, UniProt Q14145); assay: NRF2-Keap1 FP Assay (Keap1 Kelch fluorescence polarization); assay type: binding; settings: 20 nM Keap1 (321-609), 8 nM Tamra labeled peptide
T1 construct: the Kelch domain (321-609) of Keap1 is used
T1 sequence (Q14145 321-609): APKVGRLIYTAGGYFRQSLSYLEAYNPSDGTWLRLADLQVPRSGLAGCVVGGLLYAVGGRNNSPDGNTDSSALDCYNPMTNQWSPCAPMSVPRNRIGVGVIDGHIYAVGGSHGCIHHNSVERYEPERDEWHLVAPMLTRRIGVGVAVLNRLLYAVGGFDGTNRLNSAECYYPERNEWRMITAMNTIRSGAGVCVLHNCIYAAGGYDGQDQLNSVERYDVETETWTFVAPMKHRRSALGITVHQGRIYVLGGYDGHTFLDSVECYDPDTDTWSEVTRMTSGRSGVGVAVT
How it was run: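 Compound dilutions (3-fold) were incubated 1 hr at room temperature with 20 nM Keap1 Kelch (321-609) and 8 nM TAMRA-labeled ETGE 16mer peptide. Buffer was 50 mM Tris pH 8.0, 100 mM NaCl, 5 mM MgCl2, 1 mM DTT, 2 mM CHAPS, 0.005% BSA. Fluorescence polarization (mP) was normalized to controls and fitted with a four-parameter equation to give pIC50.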

Row | Compound | IC50 [2] | EC50 [1] | EC50 ([1]; Homo sapiens)
1 | 1-(3′-((2-chlorocyclohexyl)methoxy)-[1,1′-biphenyl]-3-yl)-5-((1,2-trans)-2-(1-methyl-1H-1,2,3-triazol-4-yl)cyclopropyl)-1H-pyrazole-4-carboxylic acid [Example 186] | 100 to 1000 nM | 10 to 100 nM | 
2 | CC1CC(C)CN(C(=O)c2cccc(-c3cccc(-n4ncc(C(=O)O)c4[C@@H]4C[C@H]4c4cn(C)nn4)c3)c2F)C1 (mixture of isomers) [Example 263, 1-(3′-(3,5-Dimethylpiperidine-1-carbonyl)-2′-fluoro-[1,1′-biphenyl]-3-yl)-5-(2-(1-methyl-1H-1,2,3-triazol-4-yl)cyclopropyl)-1H-pyrazole-4-carboxylic Acid] | 10 to 100 nM |  | 100 to 1000 nM
3 | CC(Oc1cccc(-c2cccc(-n3ncc(C(=O)O)c3[C@@H]3C[C@H]3c3cn(C)nn3)n2)c1)C1CCCCC1 (relative stereo) [Example 249, 1-(6-(3-(1-Cyclohexylethoxy)phenyl)pyridin-2-yl)-5-(trans-2-(1-methyl-1H-1,2,3-triazol-4-yl)cyclopropyl)-1H-pyrazole-4-carboxylic Acid] | 10 to 100 nM |  | 1 to 10 nM
4 | C[C@@H]1CCC[C@H](C)N1C(=O)c1cccc(-c2cccc(-n3ncc(C(=O)O)c3[C@@H]3C[C@H]3c3cn(C)nn3)c2)c1F (single isomer, unassigned) [Example 262] | 10 to 100 nM |  | 10 to 100 nM
5 | O=C(O)c1cnn(-c2cccc(-c3cccc(C(=O)N(CC4CC4)CC4CC4)c3F)c2)c1C1CC1 [Example 8, 1-(3-{3-[Bis(cyclopropylmethyl)carbamoyl]-2-fluorophenyl}phenyl)-5-cyclopropyl-1H-pyrazole-4-carboxylic Acid] | 10 to 100 nM |  | 100 to 1000 nM
6 | CC1CCC(C)N(C(=O)c2cccc(-c3cccc(-n4ncc(C(=O)O)c4C4CC4)c3)c2F)C1 (centres unmarked) [Example 30, 5-Cyclopropyl-1-{3-[3-(2,5-dimethylpiperidine-1-carbonyl)-2-fluorophenyl]phenyl}-1H-pyrazole-4-carboxylic Acid] | 10 to 100 nM |  | 100 to 1000 nM
7 | O=C(O)c1cnn(-c2cccc(-c3cccc(C(=O)N4CCCC5CCCCC54)c3F)c2)c1C1CC1 (centres unmarked) [Example 31, 5-Cyclopropyl-1-{3-[3-(decahydroquinoline-1-carbonyl)-2-fluorophenyl]phenyl}-1H-pyrazole-4-carboxylic Acid] | 100 to 1000 nM |  | 100 to 1000 nM
8 | O=C(O)c1cnn(-c2cccc(-c3cccc(C(=O)N4CCCCC4C4CCCC4)c3F)c2)c1C1CC1 (centres unmarked) [Example 33, 1-{3-[3-(2-Cyclopentylpiperidine-1-carbonyl)-2-fluorophenyl]phenyl}-5-cyclopropyl-1H-pyrazole-4-carboxylic Acid] | 10 to 100 nM |  | 100 to 1000 nM
9 | O=C(O)c1cnn(-c2cccc(-c3cccc(C(=O)N4C5CCCC4CCC5)c3F)c2)c1C1CC1 [Example 34, 1-[3-(3-{9-azabicyclo[3.3.1]nonane-9-carbonyl}-2-fluorophenyl)phenyl]-5-cyclopropyl-1H-pyrazole-4-carboxylic Acid] | 10 to 100 nM |  | 100 to 1000 nM
10 | O=C(O)c1cnn(-c2cccc(-c3cccc(C(=O)N4CCCC5(CCCC5)C4)c3F)c2)c1C1CC1 [Example 35, 1-[3-(3-{7-Azaspiro[4.5]decane-7-carbonyl}-2-fluorophenyl)phenyl]-5-cyclopropyl-1H-pyrazole-4-carboxylic Acid] | 10 to 100 nM |  | 100 to 1000 nM

Continued, in another order:

Row | IC50 [2] | Compound | EC50 [1] | EC50 ([1]; Homo sapiens)
11 | 10 to 100 nM | Cn1cc([C@@H]2C[C@H]2c2c(C(=O)O)cnn2-c2cccc(-c3cccc(-n4ncc5c4C(C)(C)CC5)c3)n2)nn1 (racemic) [Example 251, 1-(6-(3-(6,6-Dimethyl-5,6-dihydrocyclopenta[c]pyrazol-1(4H)-yl)phenyl)pyridin-2-yl)-5-(trans-2-(1-methyl-1H-1,2,3-triazol-4-yl)cyclopropyl)-1H-pyrazole-4-carboxylic Acid] |  | 100 to 1000 nM
12 | 10 to 100 nM | Cn1cc([C@@H]2C[C@H]2c2c(C(=O)O)cnn2-c2cccc(-c3cccc(CN4Cc5ccccc5OC(C)(C)C4)c3)c2)nn1 (racemic) [Example 254, 1-(3′-((2,2-Dimethyl-2,3-dihydrobenzo[f][1,4]oxazepin-4(5H)-yl)methyl)-[1,1′-biphenyl]-3-yl)-5-(trans-2-(1-methyl-1H-1,2,3-triazol-4-yl)cyclopropyl)-1H-pyrazole-4-carboxylic Acid] |  | 100 to 1000 nM
13 | 10 to 100 nM | Cn1cc([C@H]2C[C@@H]2c2c(C(=O)O)cnn2-c2cccc(-c3cccc(C(=O)N4CCCCC4)c3F)c2)nn1 (racemic) [Example 258, 1-(2′-Fluoro-3′-(piperidine-1-carbonyl)-[1,1′-biphenyl]-3-yl)-5-(trans-2-(1-methyl-1H-1,2,3-triazol-4-yl)cyclopropyl)-1H-pyrazole-4-carboxylic Acid] |  | 100 to 1000 nM
14 | 10 to 100 nM | Cn1cc([C@H]2C[C@@H]2c2c(C(=O)O)cnn2-c2cccc(-c3cccc(C(=O)N4CCCC(C)(C)C4)c3F)c2)nn1 (racemic) [Example 259, 1-(2′-Fluoro-3′-(3,3-dimethylpiperidine-1-carbonyl)-[1,1′-biphenyl]-3-yl)-5-(trans-2-(1-methyl-1H-1,2,3-triazol-4-yl)cyclopropyl)-1H-pyrazole-4-carboxylic Acid] |  | 100 to 1000 nM
15 | 10 to 100 nM | Cn1cc([C@H]2C[C@@H]2c2c(C(=O)O)cnn2-c2cccc(-c3cccc(C(=O)N4CCCCCC4)c3F)c2)nn1 (racemic) [Example 260, 1-(2′-Fluoro-3′-(azepane-1-carbonyl)-[1,1′-biphenyl]-3-yl)-5-(trans-2-(1-methyl-1H-1,2,3-triazol-4-yl)cyclopropyl)-1H-pyrazole-4-carboxylic Acid] |  | 100 to 1000 nM
16 | 10 to 100 nM | COCC1CCCCN1C(=O)c1cccc(-c2cccc(-n3ncc(C(=O)O)c3C3C[C@H]3c3cn(C)nn3)c2)c1F (mixture of isomers) [Example 264, 1-(3′-(2-(Methoxymethyl)piperidine-1-carbonyl)-2′-fluoro-[1,1′-biphenyl]-3-yl)-5-(trans-2-(1-methyl-1H-1,2,3-triazol-4-yl)cyclopropyl)-1H-pyrazole-4-carboxylic Acid] |  | 100 to 1000 nM
17 | 10 to 100 nM | CC(C)CN(C)C(=O)c1cccc(-c2cccc(-n3ncc(C(=O)O)c3[C@@H]3C[C@H]3c3cn(C)nn3)c2)c1F (racemic) [Example 266, 1-(2′-Fluoro-3′(isobutyl(methyl)carbamoyl)-[1,1′-biphenyl]-3-yl)-5-(trans-2-(1-methyl-1H-1,2,3-triazol-4-yl)cyclopropyl)-1H-pyrazole-4-carboxylic Acid] |  | 100 to 1000 nM
18 | 10 to 100 nM | CCC1Cc2ccccc2CN(Cc2cccc(-c3cccc(-n4ncc(C(=O)O)c4[C@@H]4C[C@H]4c4cn(C)nn4)c3)c2)C1 (relative stereo) [Example 252, 1-(3′-((4-Ethyl-4,5-dihydro-1H-benzo[c]azepin-2(3H)-yl)methyl)-[1,1′-biphenyl]-3-yl)-5-(trans-2-(1-methyl-1H-1,2,3-triazol-4-yl)cyclopropyl)-1H-pyrazole-4-carboxylic Acid] |  | 100 to 1000 nM
19 | 10 to 100 nM | C[C@@H]1CCC[C@H](C)N1C(=O)c1cccc(-c2cccc(-n3ncc(C(=O)O)c3[C@H]3C[C@@H]3c3cn(C)nn3)c2)c1F (single isomer, unassigned) [Example 261] |  | 10 to 100 nM
20 | 10 to 100 nM | CCCC1CCCCN1C(=O)c1cccc(-c2cccc(-n3ncc(C(=O)O)c3C3CC3)c2)c1F (stereo in doubt) [Example 54d, 5-Cyclopropyl-1-{3-[2-fluoro-3-((2R)-2-propylpiperidine-1-carbonyl)phenyl]phenyl}-1H-pyrazole-4-carboxylic Acid] |  | 100 to 1000 nM
21 | 10 to 100 nM | CC(C)CC1CCCCN1C(=O)c1cccc(-c2cccc(-n3ncc(C(=O)O)c3C3CC3)c2)c1F (centres unmarked) [Example 28, 5-Cyclopropyl-1-(3-{2-fluoro-3-[2-(2-methylpropyl)piperidine-1-carbonyl]phenyl}phenyl)-1H-pyrazole-4-carboxylic Acid] |  | 100 to 1000 nM
22 | 10 to 100 nM | CC1CCCN(C(=O)c2cccc(-c3cccc(-n4ncc(C(=O)O)c4C4CC4)c3)c2F)CC1 (centres unmarked) [Example 29, 5-Cyclopropyl-1-{3-[2-fluoro-3-(4-methylazepane-1-carbonyl)phenyl]phenyl}-1H-pyrazole-4-carboxylic Acid] |  | 100 to 1000 nM
23 | 10 to 100 nM | O=C(O)c1cnn(-c2cccc(-c3cccc(C(=O)N4CCCCC4CCC(F)(F)F)c3F)c2)c1C1CC1 (centres unmarked) [Example 38, 5-Cyclopropyl-1-(3-{2-fluoro-3-[2-(3,3,3-trifluoropropyl)piperidine-1-carbonyl]phenyl}phenyl)-1H-pyrazole-4-carboxylic Acid] |  | 100 to 1000 nM
24 | 10 to 100 nM | CCC[C@@H]1CO[C@@H](C)CN1C(=O)c1cccc(-c2cccc(-n3ncc(C(=O)O)c3C3CC3)c2)c1F [Example 45, 5-cyclopropyl-1-(3-{2-fluoro-3-[(2S,5R)-2-methyl-5-propylmorpholine-4-carbonyl]phenyl}phenyl)-1H-pyrazole-4-carboxylic Acid] |  | 100 to 1000 nM
25 | 10 to 100 nM | CC1CC(C)CN(C(=O)c2cccc(-c3cccc(-n4ncc(C(=O)O)c4C4CC4)c3)c2F)C1 (centres unmarked) [Example 53, 5-Cyclopropyl-1-[3′-(3,5-dimethyl-piperidine-1-carbonyl)-2′-fluoro-biphenyl-3-yl]-1H-pyrazole-4-carboxylic Acid] |  | 100 to 1000 nM
